Assay results as given in PubChem BioAssay AID493092 (Sanford-Burnham Center for Chemical Genomics, 2011).
Calls of active or inactive are those of the source.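 How the source made its calls: active means averaged IC50 for reducing per-cell lipid droplet stain intensity under a set limit; inactive means the rest.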

System: AML12 mouse hepatocytes, BODIPY lipid droplet imaging
Assay: lipid droplet accumulation inhibition in liver cells – imaging, AML12 mouse hepatocytes, BODIPY staining, SAR follow-up (AID 493092)
Settings: cells fed 100 µM oleate overnight

`Cc1cc(N2CCOCC2)n2ncc(-c3ccc(F)cc3)c2n1` and `Cc1cc(N2CCOCC2)n2ncc(-c3ccccc3)c2n1` are within 1.5-fold of each other in IC50: 2120 nM for the first, 3070 nM for the second.

Going from `Cc1cc(N2CCOCC2)n2nc(C)c(-c3ccccc3Cl)c2n1` to `Cc1ccc(-c2c(C)nn3c(N4CCOCC4)cc(C)nc23)cc1`, the IC50 falls from 410 nM to 246 nM (1.7-fold). The second is the more potent here.

Going from `CCOc1ccc(CCNC(=O)CSc2cc(=O)n(C)c3ccccc23)cc1OCC` to `CCOc1ccc(CCNC(=O)CSc2cc(=O)n(CC)c3ccccc23)cc1OCC`, the IC50 rises from 496 nM to 1260 nM (2.5-fold).

Compared with `CCOc1ccc(CCNC(=O)CN2C(=O)c3cccnc3Oc3ccc(C)cc32)cc1OCC`, `CCOc1ccc(CCNC(=O)CCOc2cc(C)ccc2C)cc1OCC` is 1.7-fold lower in IC50: 170 nM for the first, 102 nM for the second.

Going from `COc1cc(NC(=O)c2cccs2)c(OC)cc1NC(=O)CCC(=O)Nc1cccc2ncccc12` to `COc1cc(NC(=O)c2cccs2)c(OC)cc1NC(=O)CCC(=O)Nc1cccc2ccccc12`, the IC50 falls from 4500 nM to 260 nM (17-fold). The second is the more potent here.

`COc1ccc(CN(C)C(=O)CNC(=O)Cc2cccc3ccccc23)c(OC)c1` and `COc1ccc(CN(C)C(=O)CNC(=O)Cc2cccc3ccccc23)c(OC)c1OC` are within 1.5-fold of each other in IC50: 2990 nM for the first, 2350 nM for the second.

First: CCOc1ccc(CCNC(=O)CCc2nnc3ccc(N4CCCC4)nn23)cc1OCC
Second: CCOc1ccc(CCNC(=O)CCc2nnc3ccc(N4CCCCC4)nn23)cc1OCC
The IC50 of the first is 2.5-fold higher: 922 nM for the first, 366 nM for the second. The second is the more potent here.

First: CCOC(=O)c1cc(CC)sc1NC(=O)C1CC(=O)NN1Cc1ccccc1 (centres undefined)
Second: COc1ccc(C(=O)OCC(=O)NC(C)CCc2ccccc2)c(OC)c1 (centres undefined)
The IC50 of the first is 3-fold lower: 338 nM for the first, 1010 nM for the second.

`CCc1ccc(NC(=O)CCC(=O)Nc2cc(OC)c(NC(=O)c3cccs3)cc2OC)cc1` and `CCOc1ccc(NC(=O)CCC(=O)Nc2cc(OC)c(NC(=O)c3cccs3)cc2OC)cc1` are within 1.5-fold of each other in IC50: 336 nM for the first, 276 nM for the second.

Going from `CCCc1cc(N2CCOCC2)n2nc(C)c(-c3ccccc3)c2n1` to `CCCc1cc(N2CCOCC2)n2ncc(-c3ccccc3)c2n1`, the IC50 rises from 168 nM to 2500 nM (15-fold). The first is the more potent here.

Going from `COc1cccc(NC(=O)CCC(=O)Nc2cc(OC)c(NC(=O)c3cccs3)cc2OC)c1` to `COc1ccc(NC(=O)CCC(=O)Nc2cc(OC)c(NC(=O)c3cccs3)cc2OC)cc1`, the IC50 rises from 197 nM to 635 nM (3.2-fold).

First: CCOc1cc(CNC(=O)CCCn2c(=O)c3cccn3c3cccnc32)cc(OCC)c1OCC
Second: CCOc1ccc(CCNC(=O)Cn2ncn3nc(-c4ccc(OC)cc4)cc3c2=O)cc1OCC
The IC50 of the first is 1.8-fold higher: 220 nM for the first, 121 nM for the second. The second is the more potent here.

First: COc1ccc(CNC(=O)CN2C(=O)NC(C)(c3cccc4ccccc34)C2=O)cc1OC (centres undefined)
Second: CCOc1ccc(CN(C)C(=O)CNC(=O)c2ccc3ccccc3c2)cc1OC
The IC50 of the first is 2.9-fold higher: 1170 nM for the first, 402 nM for the second.

Going from `COc1ccccc1NS(=O)(=O)c1ccc(NN=Cc2c(C)nn(-c3ccccc3)c2N2CCCC2)c([N+](=O)[O-])c1` to `CCOc1cc2c(cc1OCC)C(c1ccccc1)N(c1ccccc1)C(=O)C2` (centres undefined), the IC50 falls from 887 nM to 287 nM (3.1-fold). The second is the more potent here.

Going from `CCOc1ccc(CCNC(=O)Nc2cccc(OC)c2)cc1OCC` to `CCOc1ccc(CCNC(=O)Nc2ccccc2)cc1OCC`, the IC50 rises from 134 nM to 257 nM (1.9-fold). The first is the more potent here.

Compared with `CCOc1ccc(CN(C)C(=O)CNC(=O)Cc2cccc3ccccc23)cc1`, `CCOc1ccc(C(=O)NCC(=O)NC(C)CCc2ccccc2)cc1OCC` (centres undefined) is 4.1-fold higher in IC50: 168 nM for the first, 688 nM for the second. The first is the more potent here.

Compared with `COc1ccc(-c2csc(NC(=O)c3ccc(OCC(=O)N4CCOCC4)c(OC)c3)n2)cc1`, `CCOc1ccc(C(=O)OC(C)C(=O)Nc2nc(-c3ccc(CC)cc3)cs2)cc1OCC` (centres undefined) is lower in IC50: 475 nM for the first, < 62.5 nM for the second.

Going from `CCOc1ccc(C(C)NC(=O)Cc2ccccc2F)cc1OCC` (centres undefined) to `CCOc1ccc(CCNC(=O)CN2CCN(Cc3ccccc3C)C2=O)cc1OCC`, the IC50 falls from 840 nM to 555 nM (1.5-fold).

Going from `CCOc1ccc(CCNC(=O)CCC(=O)N2CCSc3ccccc32)cc1OCC` to `CCOc1ccc(CCNC(=O)Cn2cccc2C(=O)c2ccccc2)cc1OCC`, the IC50 rises from 81.7 nM to 424 nM (5.2-fold).

Compared with `COc1cc(NC(=O)c2cccs2)c(OC)cc1NC(=O)CCC(=O)Nc1c(C)cccc1C`, `COc1cc(NC(=O)c2cccs2)c(OC)cc1NC(=O)CCC(=O)Nc1cc(C)cc(C)c1` is 25-fold lower in IC50: 2200 nM for the first, 87 nM for the second.

Going from `CC1CC(C)CN(C(=O)c2ccc3c(c2NCCO)C(=O)c2ccccc2C3=O)C1` (centres undefined) to `CCOc1cc2c(cc1OCC)CN(C(=O)CNC(=O)c1ccc3ccccc3c1)CC2`, the IC50 falls from 782 nM to 311 nM (2.5-fold).

First: CCOc1ccccc1NC(=O)CCC(=O)Nc1ccccc1OCC
Second: CCc1ccccc1NC(=O)CCC(=O)Nc1cc(OC)c(NC(=O)c2cccs2)cc1OC
The IC50 of the first is 2.9-fold higher: 1540 nM for the first, 538 nM for the second.

Going from `CCCc1ccc(-c2csc(NC(=O)Cc3cccs3)n2)cc1` to `CC(Sc1nnc(Nc2ccccc2)s1)C(=O)Nc1nc(-c2ccccc2)cs1` (centres undefined), the IC50 rises from 510 nM to 3680 nM (7.2-fold).

Compared with `CCOc1ccc(CCNC(=O)COC(=O)c2cc(OC)cc(OC)c2)cc1OCC`, `CCOc1ccc(CCNC(=O)CCc2nc(-c3ccc(OC)cc3)no2)cc1OCC` is 2.4-fold lower in IC50: 736 nM for the first, 302 nM for the second.

First: CCOc1ccccc1Nc1nnc(SC(C)C(=O)Nc2nc(-c3ccccc3)cs2)s1 (centres undefined)
Second: CC(C)Oc1ccc(C(=O)OC(C)C(=O)Nc2nc(-c3cccc([N+](=O)[O-])c3)cs2)cc1 (centres undefined)
The IC50 of the first is 11-fold higher: 1160 nM for the first, 106 nM for the second. The second is the more potent here.

`O=C(NCc1ccc2c(c1)OCO2)c1cc(-c2ccccc2)c(N2CCOCC2)s1` and `CCOc1ccc(CCNC(=O)Cn2nc(C)c3c(C)n(-c4ccccc4)nc3c2=O)cc1OCC` are within 1.5-fold of each other in IC50: 412 nM for the first, 336 nM for the second.

Going from `Cc1ccc(-n2nc3c(=O)n(CC(=O)NC(C)CCc4ccccc4)nc(C)c3c2C)cc1` (centres undefined) to `CCOc1ccc(C(=O)OCC(=O)Nc2cc(C)on2)cc1OCC`, the IC50 rises from 413 nM to 864 nM (2.1-fold).

In the case of `CCN(CC)S(=O)(=O)c1ccc(C(=O)NCC(=O)NCCCc2ccccc2)cc1`, the IC50 is reported as > 32000 nM (inactive).
In the case of `CC(OC(=O)c1ccc(O)cc1)C(=O)Nc1nc(-c2cccc([N+](=O)[O-])c2)cs1` (centres undefined), the IC50 is reported as > 32000 nM (inactive).
`Cc1nn2c(N3CCOCC3)cc(C(C)(C)C)nc2c1-c1ccc(Cl)cc1` was tested, and the IC50 was > 32000 nM (inactive).
With `Cc1nn2c(N3CCOCC3)c3c(nc2c1-c1ccccc1)CCC3` the IC50 was 21600 nM (inactive).
In the case of `CCOc1ccc(CCNC(=O)CSc2cc(=O)n(C)c3cc(Cl)ccc23)cc1OCC`, the IC50 is reported as > 32000 nM (inactive).
In the case of `Cc1ccc(-c2cnn3c(N4CCOCC4)cc(C)nc23)cc1`, the IC50 is reported as 10600 nM (inactive).
In the case of `Cc1ccccc1C(=O)NCC(=O)NCCC(c1ccccc1)c1ccccc1`, the IC50 is reported as > 32000 nM (inactive).
With `COc1ccc(CCNC(=O)Nc2cc(F)c(F)cc2Cl)cc1OC` the IC50 was > 32000 nM (inactive).
With `COc1ccc(C(=O)OCC(=O)NC(C)CCc2ccccc2)cc1OC` (centres undefined) the IC50 was 8730 nM (inactive).
`O=C(Cc1cccc2ccccc12)NCC(=O)N1CCc2ccccc2C1` was tested, and the IC50 was > 32000 nM (inactive).
In the case of `COc1ccc(CCNC(=O)Nc2ccccc2C#N)cc1OC`, the IC50 is reported as > 32000 nM (inactive).
With `Cc1cc(C)n(-c2ccc(C(=O)OC(C)C(=O)Nc3nc(-c4ccccc4)cs3)cc2)n1` (centres undefined) the IC50 was > 32000 nM (inactive).
With `O=C(CNC(=O)c1cccc(Br)c1)NCCCc1ccccc1` the IC50 was > 32000 nM (inactive).
In the case of `CC(OC(=O)c1ccc(F)cc1)C(=O)Nc1nc(-c2cccc([N+](=O)[O-])c2)cs1` (centres undefined), the IC50 is reported as > 32000 nM (inactive).
In the case of `COc1cccc(CN(C)C(=O)CNC(=O)Cc2cccc3ccccc23)c1OC`, the IC50 is reported as > 32000 nM (inactive).
For `COc1ccc(CCNC(=O)Nc2ccc(F)cc2F)cc1OC`, the IC50 was > 32000 nM (inactive).
In the case of `CCOc1ccccc1C(=O)NCC(=O)NCCCc1ccccc1`, the IC50 is reported as > 32000 nM (inactive).
With `CC(OC(=O)c1ccc(O)cc1)C(=O)Nc1nc(-c2ccccc2)cs1` (centres undefined) the IC50 was > 32000 nM (inactive).
`COc1ccc(CCNC(=O)Nc2ccc(C(C)=O)cc2)cc1OC` was tested, and the IC50 was > 32000 nM (inactive).
`COc1ccc(CCNC(=O)Nc2ccccc2C(F)(F)F)cc1OC` was tested, and the IC50 was > 32000 nM (inactive).
